Reference: ChEMBL document CHEMBL4000185, “Pyrimidine-Based Inhibitors of Dynamin I GTPase Activity: Competitive Inhibition at the Pleckstrin Homology Domain” (J Med Chem, 2017)
The source made the active and inactive calls. The rule behind the calls is not given here.

Species on record: Ovis aries
Assay: Inhibition of phosphatidyl serine liposome-stimulated sheep brain dynamin 1 GTPase activity assessed as reduction orthophosphate release at 300 uM using GTP as substrate after 30 mins by malachite green reagent based colorimetric assay relative to control
Conditions: not given

Structure (SMILES) | inhibition
CCC(C)Nc1cc(C)nc(NCCN(C)C)n1 (stereo unspecified) | inactive
CCNc1cc(C)nc(NCCN(C)C)n1 | inactive
CCCNc1cc(C)nc(NCCN(C)C)n1 | inactive
Cc1cc(NCCN(C)C)nc(NCc2ccccc2)n1 | > 50%
CCCCNc1nc(C)cc(NCCN(C)C)n1 | inactive
CCCNc1nc(C)cc(NCCN(C)C)n1 | inactive
CCNc1nc(C)cc(NCCN(C)C)n1 | inactive
CCC(C)Nc1nc(C)cc(NCCN(C)C)n1 (stereo unspecified) | > 50%
CCCCNc1cc(C)nc(NCCN(C)C)n1 | > 50%
Cc1cc(NCc2ccccc2)nc(NCCN(C)C)n1 | > 50%

Test system: not listed separately
Assay: Inhibition of phosphatidyl serine liposome-stimulated sheep brain dynamin 1 GTPase activity assessed as reduction orthophosphate release using GTP as substrate after 30 mins by malachite green reagent based colorimetric assay
Parameters: species or system Ovis aries
Conditions: not given

Structure (SMILES) | IC50
CCCCCCCCCCCCCCNc1nc(C)cc(NCCN(C)C)n1 | Not Active

Same assay, conditions: read-out: IC50

Structure (SMILES) | IC50 [µM]
CCCCCCCCCCNc1nc(C)cc(NCCN(C)C)n1 | 9.3
CCCCCCCCCCCCNc1nc(C)cc(NCCN)n1 | 18.6
CCCCCCCCCCNc1nccc(NCCN(C)C)n1 | 44.9
CCCCCCCCCCN(CCCCCCCCCC)c1cc(C)nc(NCCN(C)C)n1 | 7.5
CCCCCCCCCCCCNc1nccc(NCCN(C)C)n1 | 2
CCCCCCCCCCCCNc1nc(C)cc(NCCCN(C)C)n1 | 37.7
CCCCCCCCCCCCCCCCCCNc1nc(C)cc(NCCN(C)C)n1 | 4.4
CCCCCCCCCCCCNc1cc(C)nc(NCCO)n1 | 4.6
Cc1cc(NCCN(C)C)nc(NC2CCCCC2)n1 | 3.8
CCCCCCNc1cc(C)nc(NCCN(C)C)n1 | 10.6
CCCCCCCCCCNc1cc(NCCN(C)C)ncn1 | 5.1
CCCCCCCCCCCCNc1nc(C)cc(NCCO)n1 | 5.5
Cc1cc(NC2CCCCC2)nc(NCCN(C)C)n1 | 20.6
CCCCCCCCCCNc1cc(C)nc(NCCN(C)C)n1 | 3.8
Cc1cc(NCCN(C)C)nc(NCc2ccccc2)n1 | > 50
CCCCCCCCCCCCNc1cc(C)nc(NCCCN(C)C)n1 | 49
CCCCCCCCCCCCNc1cc(C)nc(NCCN)n1 | 5.3
CCCN(CC1CC1)c1nc(C)cc(NCCN(C)C)n1 | 59.8
CCCCCCCCCCCCNc1cc(C)nc(NCCC)n1 | 61.8

Structure (SMILES) | IC50 [µM]
CCCCCCCCCCCCNc1cc(C)nc(NCCN(C)C)n1 | 1.1
CCCCCCNc1nc(C)cc(NCCN(C)C)n1 | 5.8
CCCCCCCCCCCCNc1nc(C)cc(NCCC)n1 | 4.7
CCCCCCCCNc1nc(C)cc(NCCN(C)C)n1 | 2.5
CCCCCCCCCCCCNc1nc(C)cc(N(C)C)n1 | 3.3
CCCCCCCCCCCCNc1cc(C)nc(Cl)n1 | 32.5
CCCCCCCCCCCCCCNc1cc(C)nc(NCCN(C)C)n1 | 3.2
CCCCCCCCNc1cc(C)nc(NCCN(C)C)n1 | 1.6
CCC(C)Nc1nc(C)cc(NCCN(C)C)n1 (stereo unspecified) | > 50
CCCN(CC1CC1)c1cc(C)nc(NCCN(C)C)n1 | 52
CCCCCCCCCCCCCCCCCCNc1cc(C)nc(NCCN(C)C)n1 | 8.4
CCCCCCCCCCN(CCCCCCCCCC)c1nc(C)cc(CCN(C)C)n1 | 5.2
CCCCCCCCCCCCNc1ccnc(NCCN(C)C)n1 | 1.8
CCCCCCCCCCNc1ccnc(NCCN(C)C)n1 | 2.9
CCCCCCCCCCCCNc1cc(NCCN(C)C)ncn1 | 7.7
CCCCCCCCCCCCNc1cc(C)nc(N(C)C)n1 | 14
CCCCNc1cc(C)nc(NCCN(C)C)n1 | > 50
Cc1cc(NCc2ccccc2)nc(NCCN(C)C)n1 | > 50

Species on record: Ovis aries
Assay: Inhibition of phosphatidyl serine liposome-stimulated sheep brain dynamin 1 GTPase activity assessed as reduction orthophosphate release up to 300 uM using GTP as substrate after 30 mins by malachite green reagent based colorimetric assay relative to control
Conditions: not given

Structure (SMILES) | inhibition
Cc1cc(Cl)nc(NCCCN(C)C)n1 | inactive
CCC(C)Nc1nc(C)cc(Cl)n1 (stereo unspecified) | inactive
Cc1cc(N2CCN(C)CC2)nc(Cl)n1 | inactive
Cc1cc(Cl)nc(NC2CCCCC2)n1 | inactive
Cc1cc(NC2CCCCC2)nc(Cl)n1 | inactive
Cc1cc(Cl)nc(NCCN)n1 | inactive
Cc1cc(Cl)nc(NCc2ccccc2)n1 | inactive
Cc1cc(Cl)nc(N(C)C)n1 | inactive
CCCCCCCCNc1nc(C)cc(Cl)n1 | inactive
CCCCCCCCNc1cc(C)nc(Cl)n1 | inactive
CCCCCCCCCCCCCCNc1cc(C)nc(Cl)n1 | inactive
CCCN(CC1CC1)c1cc(C)nc(Cl)n1 | inactive
Cc1cc(NCc2ccccc2)nc(Cl)n1 | inactive
Cc1cc(N(C)C)nc(Cl)n1 | inactive
Cc1cc(NCCCN(C)C)nc(Cl)n1 | inactive
CCCNc1nc(C)cc(Cl)n1 | inactive
COc1ccc(CNc2cc(C)nc(Cl)n2)cc1 | inactive

Structure (SMILES) | inhibition
CCCCNc1cc(C)nc(Cl)n1 | inactive
Cc1cc(Cl)nc(NCCNC(=O)OC(C)(C)C)n1 | inactive
Cc1cc(NCCN)nc(Cl)n1 | inactive
COc1ccc(CNc2nc(C)cc(Cl)n2)cc1 | inactive
CCCNc1cc(C)nc(Cl)n1 | inactive
CCNc1cc(C)nc(Cl)n1 | inactive
CCNc1nc(C)cc(Cl)n1 | inactive
Cc1cc(NCCNC(=O)OC(C)(C)C)nc(Cl)n1 | inactive
CCCCNc1nc(C)cc(Cl)n1 | inactive
Cc1cc(Cl)nc(N2CCN(C)CC2)n1 | inactive
CCCCCCCCCCCCCCNc1nc(C)cc(Cl)n1 | inactive
CCC(C)Nc1cc(C)nc(Cl)n1 (stereo unspecified) | inactive
CCCCCCCCCCNc1cc(C)nc(Cl)n1 | inactive
CCCCCCNc1nc(C)cc(Cl)n1 | inactive
CCCCCCNc1cc(C)nc(Cl)n1 | inactive
CCCN(CC1CC1)c1nc(C)cc(Cl)n1 | inactive
